# Measurements as given in paper PMC3203342 (Nature, 2011).
# Columns and labels:
# [1] = target: T1, Or59b/Orco in ab2A OSN (Drosophila melanogaster, UniProt Q9W1P8); experiment: single sensillum recording, dose-response; format: cell-based; conditions: native ab2A neuron; vapour; inhibitor of spontaneous activity
# T1 sequence (Q9W1P8 1-398): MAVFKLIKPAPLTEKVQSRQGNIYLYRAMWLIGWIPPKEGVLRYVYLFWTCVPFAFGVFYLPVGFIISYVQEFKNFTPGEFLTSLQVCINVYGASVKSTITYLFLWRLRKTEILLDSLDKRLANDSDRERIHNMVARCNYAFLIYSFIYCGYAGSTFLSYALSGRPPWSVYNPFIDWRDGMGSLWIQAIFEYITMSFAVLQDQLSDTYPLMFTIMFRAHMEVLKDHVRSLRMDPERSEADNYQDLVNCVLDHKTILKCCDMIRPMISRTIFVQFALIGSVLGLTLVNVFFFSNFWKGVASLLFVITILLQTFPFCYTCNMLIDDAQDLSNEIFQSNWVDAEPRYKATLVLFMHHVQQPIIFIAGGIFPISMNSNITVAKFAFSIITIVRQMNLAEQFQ
# T1 sequence (Q9VNB5 1-486 partner): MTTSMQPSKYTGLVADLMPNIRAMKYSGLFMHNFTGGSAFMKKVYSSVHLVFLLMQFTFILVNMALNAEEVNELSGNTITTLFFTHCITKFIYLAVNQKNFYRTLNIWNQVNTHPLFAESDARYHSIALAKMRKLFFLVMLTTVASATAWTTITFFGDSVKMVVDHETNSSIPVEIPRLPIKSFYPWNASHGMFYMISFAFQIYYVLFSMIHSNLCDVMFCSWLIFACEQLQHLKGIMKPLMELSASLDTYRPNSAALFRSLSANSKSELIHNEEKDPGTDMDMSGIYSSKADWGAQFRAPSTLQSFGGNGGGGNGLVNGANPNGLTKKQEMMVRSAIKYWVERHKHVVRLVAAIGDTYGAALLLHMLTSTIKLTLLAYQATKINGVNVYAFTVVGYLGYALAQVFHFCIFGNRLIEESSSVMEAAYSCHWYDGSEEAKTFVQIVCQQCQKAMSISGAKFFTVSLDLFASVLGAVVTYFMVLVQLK
# [2] = target: T2, Or85a/Orco in ab2B OSN (Drosophila melanogaster, UniProt Q9VHS4); experiment: single sensillum recording, dose-response; format: cell-based; conditions: native ab2B neuron; vapour; agonist
# T2 sequence (Q9VHS4 1-397): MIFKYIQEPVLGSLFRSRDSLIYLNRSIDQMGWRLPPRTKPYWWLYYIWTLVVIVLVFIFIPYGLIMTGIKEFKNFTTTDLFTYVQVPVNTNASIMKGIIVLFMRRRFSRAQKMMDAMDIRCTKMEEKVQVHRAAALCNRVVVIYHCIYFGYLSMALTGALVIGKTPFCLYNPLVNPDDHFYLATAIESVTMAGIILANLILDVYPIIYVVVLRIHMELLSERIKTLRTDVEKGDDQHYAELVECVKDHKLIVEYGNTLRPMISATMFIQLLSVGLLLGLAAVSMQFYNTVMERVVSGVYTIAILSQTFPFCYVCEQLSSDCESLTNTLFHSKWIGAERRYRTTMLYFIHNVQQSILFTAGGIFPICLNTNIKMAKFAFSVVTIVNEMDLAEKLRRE
# T2 sequence (Q9VNB5 1-486 partner): T1 sequence (Q9VNB5 1-486 partner)
SMILES,Δ spikes/s [1],Δ spikes/s [2]
C=C[C@](C)(O)CCC=C(C)C [linalool],"DEET interfered with inhibition of Or59b/Orco by 1-octen-3-ol, 1-octanol, and linalool",
CCCCCCCCO [1-octanol],"DEET interfered with inhibition of Or59b/Orco by 1-octen-3-ol, 1-octanol, and linalool",
C=CC(O)CCCCC (stereo not drawn) [1-octen-3-ol],,activating the ab2B neuron expressing Or85a/Orco (Fig. 1e)
